Reference: publication PMC5218480 (PLoS ONE, 2017)

System: MV-4-11 cells
Test: Gene expression microarray analysis (Affymetrix PrimeView) and GSEA
Format: cell-based, human
Parameters: RFU PODN (11730768_x_at) / Fold change /veh PODN (11730768_x_at) / RFU LINC00158 (11744669_a_at) / Fold change /veh LINC00158 (11744669_a_at) / RFU DUSP10 (11751237_a_at) / Fold change /veh DUSP10 (11751237_a_at) / RFU ID3 (11757404_x_at) / Fold change /veh ID3 (11757404_x_at) / RFU PLEKHG5 (11737974_s_at) / Fold change /veh PLEKHG5 (11737974_s_at) / RFU LRRC4B (11730491_at) / Fold change /veh LRRC4B (11730491_at) / RFU GIMAP4 (11747438_a_at) / Fold change /veh GIMAP4 (11747438_a_at) / RFU KRT8 (11758183_x_at) / Fold change /veh KRT8 (11758183_x_at) / RFU CNN1 (11734310_a_at) / Fold change /veh CNN1 (11734310_a_at) / RFU VPS37D (11726825_at) / Fold change /veh VPS37D (11726825_at) / RFU C10orf10 (11716522_x_at) / Fold change /veh C10orf10 (11716522_x_at) / RFU KIR2DL2 /// KIR2DL4 /// KIR2DL5A /// KIR2DL5B /// KIR2DS1 /// KIR2DS2 /// KIR2DS3 /// KIR2DS4 /// KIR3DL3 /// KIR3DL3 /// KIR3DS1 (11738374_at) / Fold change /veh KIR2DL2 /// KIR2DL4 /// KIR2DL5A /// KIR2DL5B /// KIR2DS1 /// KIR2DS2 /// KIR2DS3 /// KIR2DS4 /// KIR3DL3 /// KIR3DL3 /// KIR3DS1 (11738374_at) / RFU C1QL1 (11718748_at) / Fold change /veh C1QL1 (11718748_at) / RFU TMPRSS4 (11747572_a_at) / Fold change /veh TMPRSS4 (11747572_a_at) / RFU HAMP (11756126_x_at) / Fold change /veh HAMP (11756126_x_at) / RFU RNFT2 (11725882_a_at) / Fold change /veh RNFT2 (11725882_a_at) / RFU NR4A2 (11747474_a_at) / Fold change /veh NR4A2 (11747474_a_at) / RFU ABCC12 (11746883_a_at) / Fold change /veh ABCC12 (11746883_a_at) / RFU TMEM136 (11760407_x_at) / Fold change /veh TMEM136 (11760407_x_at) / RFU CLDN22 /// WWC2 (11732394_at) / Fold change /veh CLDN22 /// WWC2 (11732394_at) / RFU HLA-DPB1 (11760878_x_at) / Fold change /veh HLA-DPB1 (11760878_x_at) / RFU SPINT1 (11716480_a_at) / Fold change /veh SPINT1 (11716480_a_at) / RFU GAP43 (11754022_s_at) / Fold change /veh GAP43 (11754022_s_at) / RFU A4GNT (11735810_at) / Fold change /veh A4GNT (11735810_at) / RFU PRB3 (11715151_x_at) / Fold change /veh PRB3 (11715151_x_at) / RFU TUBB4B (11761932_at) / Fold change /veh TUBB4B (11761932_at) / RFU CAPN14 (11732068_a_at) / Fold change /veh CAPN14 (11732068_a_at) / RFU TMCC2 (11721928_a_at) / Fold change /veh TMCC2 (11721928_a_at) / RFU IRGQ (11745062_a_at) / Fold change /veh IRGQ (11745062_a_at) / RFU FAM174B (11720279_a_at) / Fold change /veh FAM174B (11720279_a_at) / RFU TMPRSS4 (11748680_a_at) / Fold change /veh TMPRSS4 (11748680_a_at) / RFU FAM212B (11763350_a_at) / Fold change /veh FAM212B (11763350_a_at) / RFU PLEKHG5 (11743358_a_at) / Fold change /veh PLEKHG5 (11743358_a_at) / RFU ZSCAN30 (11745921_a_at) / Fold change /veh ZSCAN30 (11745921_a_at) / RFU CMKLR1 (11741424_a_at) / Fold change /veh CMKLR1 (11741424_a_at) / RFU LOC101060620 /// MAPK8IP1 (11723275_at) / Fold change /veh LOC101060620 /// MAPK8IP1 (11723275_at) / RFU SPTSSB (11747773_x_at) / Fold change /veh SPTSSB (11747773_x_at) / RFU PRSS12 (11739890_at) / Fold change /veh PRSS12 (11739890_at) / RFU BIN1 (11741810_x_at) / Fold change /veh BIN1 (11741810_x_at) / RFU WNT11 (11732464_a_at) / Fold change /veh WNT11 (11732464_a_at) / RFU C10orf10 (11716521_a_at) / Fold change /veh C10orf10 (11716521_a_at) / RFU C5orf56 (11738089_at) / Fold change /veh C5orf56 (11738089_at) / RFU CYB561 (11721691_x_at) / Fold change /veh CYB561 (11721691_x_at) / RFU ANKRD19P (11752326_a_at) / Fold change /veh ANKRD19P (11752326_a_at) / RFU OR2T12 /// OR2T33 /// OR2T8 (11738714_s_at) / Fold change /veh OR2T12 /// OR2T33 /// OR2T8 (11738714_s_at) / RFU VCAN (11748164_a_at) / Fold change /veh VCAN (11748164_a_at) / RFU JSRP1 (11732532_at) / Fold change /veh JSRP1 (11732532_at) / RFU KRTAP10-11 (11738290_x_at) / Fold change /veh KRTAP10-11 (11738290_x_at) / RFU MYO3A (11730013_a_at) / Fold change /veh MYO3A (11730013_a_at) / RFU EBF3 (11725865_a_at) / Fold change /veh EBF3 (11725865_a_at) / RFU CAMK2N1 (11719241_x_at) / Fold change /veh CAMK2N1 (11719241_x_at) / RFU C5orf56 (11738088_a_at) / Fold change /veh C5orf56 (11738088_a_at) / RFU OLFML3 (11715873_a_at) / Fold change /veh OLFML3 (11715873_a_at) / RFU LOC100653217 /// NTM (11731650_a_at) / Fold change /veh LOC100653217 /// NTM (11731650_a_at) / RFU MAPK11 (11762145_a_at) / Fold change /veh MAPK11 (11762145_a_at) / RFU FIZ1 (11724087_x_at) / Fold change /veh FIZ1 (11724087_x_at) / RFU OASL (11726364_x_at) / Fold change /veh OASL (11726364_x_at) / RFU SOX15 (11748057_x_at) / Fold change /veh SOX15 (11748057_x_at) / RFU CD79A (11719716_a_at) / Fold change /veh CD79A (11719716_a_at) / RFU HIST1H1D (11736915_at) / Fold change /veh HIST1H1D (11736915_at) / RFU CASKIN2 (11723855_a_at) / Fold change /veh CASKIN2 (11723855_a_at) / RFU LOC730098 (11760151_x_at) / Fold change /veh LOC730098 (11760151_x_at) / RFU OR4N2 (11742367_at) / Fold change /veh OR4N2 (11742367_at) / RFU PRRT2 (11749266_a_at) / Fold change /veh PRRT2 (11749266_a_at) / RFU SNX32 (11753110_a_at) / Fold change /veh SNX32 (11753110_a_at) / RFU CDHR5 (11726645_a_at) / Fold change /veh CDHR5 (11726645_a_at) / RFU RCAN1 (11760418_a_at) / Fold change /veh RCAN1 (11760418_a_at) / RFU FAM167A (11723789_a_at) / Fold change /veh FAM167A (11723789_a_at) / RFU FAM26E (11764081_at) / Fold change /veh FAM26E (11764081_at) / RFU ISYNA1 (11749810_s_at) / Fold change /veh ISYNA1 (11749810_s_at) / RFU ACY1 (11761880_at) / Fold change /veh ACY1 (11761880_at) / RFU 11764098_at / Fold change /veh 11764098_at / RFU SAMD14 (11745864_x_at) / Fold change /veh SAMD14 (11745864_x_at) / RFU NPB (11741838_a_at) / Fold change /veh NPB (11741838_a_at) / RFU TMPRSS6 (11731388_a_at) / Fold change /veh TMPRSS6 (11731388_a_at) / RFU KRTAP10-2 (11738614_at) / Fold change /veh KRTAP10-2 (11738614_at) / RFU ARHGAP8 /// PRR5-ARHGAP8 (11727945_x_at) / Fold change /veh ARHGAP8 /// PRR5-ARHGAP8 (11727945_x_at) / RFU KRTAP5-7 /// NADSYN1 (11734609_at) / Fold change /veh KRTAP5-7 /// NADSYN1 (11734609_at) / RFU RASL12 (11751679_a_at) / Fold change /veh RASL12 (11751679_a_at) / RFU CDKN2B (11736163_a_at) / Fold change /veh CDKN2B (11736163_a_at) / RFU PRF1 (11729649_at) / Fold change /veh PRF1 (11729649_at) / RFU, ZNF638 /// ZNF638-IT1 / Fold change vs veh, ZNF638 /// ZNF638-IT1 / RFU, PANK3 / Fold change vs veh, PANK3 / RFU, SH3YL1 / Fold change vs veh, SH3YL1 / RFU, ZEB2 / Fold change vs veh, ZEB2 / RFU, NRIP1 / Fold change vs veh, NRIP1 / RFU, PTTG1IP / Fold change vs veh, PTTG1IP / RFU, CAPN2 / Fold change vs veh, CAPN2 / RFU, MED14 / Fold change vs veh, MED14 / RFU, SNORA58 / Fold change vs veh, SNORA58 / RFU, C1orf63 / Fold change vs veh, C1orf63 / RFU, LRRFIP1 / Fold change vs veh, LRRFIP1 / RFU, NDUFAF7 / Fold change vs veh, NDUFAF7 / RFU, SLC12A2 / Fold change vs veh, SLC12A2 / RFU, IBTK / Fold change vs veh, IBTK / RFU, ESF1 / Fold change vs veh, ESF1 / Fold change vs veh, TMEM50B / RFU, TAOK1 / Fold change vs veh, TAOK1 / RFU, ACBD3 / Fold change vs veh, ACBD3 / RFU, TMA16 / Fold change vs veh, TMA16 / RFU, RWDD3 / Fold change vs veh, RWDD3 / RFU, BCAT1 / Fold change vs veh, BCAT1 / RFU, EDEM3 / Fold change vs veh, EDEM3 / RFU, TMEM33 / Fold change vs veh, TMEM33 / RFU, WDR75 / Fold change vs veh, WDR75 / RFU, AHCTF1 / Fold change vs veh, AHCTF1 / RFU, TFRC / Fold change vs veh, TFRC / RFU, ZDHHC17 / Fold change vs veh, ZDHHC17 / RFU, NOM1 / Fold change vs veh, NOM1 / RFU, ARL8B / Fold change vs veh, ARL8B / RFU, ZBTB11 / Fold change vs veh, ZBTB11 / RFU, TAMM41 / Fold change vs veh, TAMM41 / RFU, KIAA1704 /// LOC100996395 / Fold change vs veh, KIAA1704 /// LOC100996395 / RFU, ING1 / Fold change vs veh, ING1 / RFU, TRMT61B / Fold change vs veh, TRMT61B / RFU, FUBP3 / Fold change vs veh, FUBP3 / RFU, TP53 / Fold change vs veh, TP53 / RFU, TNKS2 / Fold change vs veh, TNKS2 / RFU, ZFP14 / Fold change vs veh, ZFP14 / RFU, ACTR2 / Fold change vs veh, ACTR2 / RFU, PPP3R1 / Fold change vs veh, PPP3R1 / RFU, PIK3R1 / Fold change vs veh, PIK3R1 / RFU, HNRNPA1 / Fold change vs veh, HNRNPA1 / RFU, RNF170 / Fold change vs veh, RNF170 / RFU, ZNF28 / Fold change vs veh, ZNF28 / RFU, RNGTT / Fold change vs veh, RNGTT / RFU, OGT / Fold change vs veh, OGT / RFU, BRD1 / Fold change vs veh, BRD1 / RFU, MARS / Fold change vs veh, MARS / RFU, ZNF655 / Fold change vs veh, ZNF655 / RFU, FAHD1 / Fold change vs veh, FAHD1 / RFU, BDP1 / Fold change vs veh, BDP1 / RFU, LRRCC1 / Fold change vs veh, LRRCC1 / RFU, ARID1A / Fold change vs veh, ARID1A / RFU, ZNF146 / Fold change vs veh, ZNF146 / RFU, ZNF330 / Fold change vs veh, ZNF330 / RFU, GPN3 / Fold change vs veh, GPN3 / RFU, C9orf123 / Fold change vs veh, C9orf123 / RFU, N4BP2L2 / Fold change vs veh, N4BP2L2 / RFU, ARFIP1 / Fold change vs veh, ARFIP1 / RFU, FAM179B / Fold change vs veh, FAM179B / RFU, BCL10 / Fold change vs veh, BCL10 / RFU, UHRF1BP1L / Fold change vs veh, UHRF1BP1L / RFU, BET1 / Fold change vs veh, BET1 / RFU, CNOT2 / Fold change vs veh, CNOT2 / RFU, ZNF268 / Fold change vs veh, ZNF268 / Fold change vs veh, ZNF507 / RFU, DGCR2 / Fold change vs veh, DGCR2 / RFU, WDSUB1 / Fold change vs veh, WDSUB1 / Fold change vs veh, HSP90B1 /// MIR3652 / RFU, ADSS / Fold change vs veh, ADSS / RFU, GK / Fold change vs veh, GK / RFU, ZNF148 / Fold change vs veh, ZNF148 / RFU, TAF9 / Fold change vs veh, TAF9 / RFU, SLC1A5 / Fold change vs veh, SLC1A5 / RFU, SLMO2 / Fold change vs veh, SLMO2 / RFU, ABCC4 / Fold change vs veh, ABCC4 / RFU, LOC101060439 /// RAP1B / Fold change vs veh, LOC101060439 /// RAP1B / RFU, RFX7 / Fold change vs veh, RFX7 / RFU, GTPBP10 / Fold change vs veh, GTPBP10 / RFU, CNEP1R1 / Fold change vs veh, CNEP1R1 / RFU, BIVM-ERCC5 /// ERCC5 / Fold change vs veh, BIVM-ERCC5 /// ERCC5 / RFU, ILF3 / Fold change vs veh, ILF3 / RFU 11762660_at / Fold change /veh 11762660_at / RFU VCAN (11757783_s_at) / Fold change /veh VCAN (11757783_s_at) / RFU DDX43 (11728927_at) / Fold change /veh DDX43 (11728927_at) / RFU KRT8 (11758188_x_at) / Fold change /veh KRT8 (11758188_x_at) / RFU NKD1 (11759106_at) / Fold change /veh NKD1 (11759106_at) / RFU SRD5A1 (11742802_a_at) / Fold change /veh SRD5A1 (11742802_a_at) / RFU TPSAB1 /// TPSB2 (11721975_s_at) / Fold change /veh TPSAB1 /// TPSB2 (11721975_s_at) / RFU GSTM3 (11746129_a_at) / Fold change /veh GSTM3 (11746129_a_at) / RFU IL23R (11737362_x_at) / Fold change /veh IL23R (11737362_x_at) / RFU TMEM51 (11727254_a_at) / Fold change /veh TMEM51 (11727254_a_at) / RFU PIWIL2 (11732686_x_at) / Fold change /veh PIWIL2 (11732686_x_at) / RFU ORM1 (11744905_x_at) / Fold change /veh ORM1 (11744905_x_at) / RFU CCDC152 (11743942_at) / Fold change /veh CCDC152 (11743942_at) / RFU ECM1 (11717891_a_at) / Fold change /veh ECM1 (11717891_a_at) / RFU IL23R (11748794_a_at) / Fold change /veh IL23R (11748794_a_at) / RFU TNFAIP8L3 (11732012_x_at) / Fold change /veh TNFAIP8L3 (11732012_x_at) / RFU MBOAT4 (11741988_at) / Fold change /veh MBOAT4 (11741988_at) / RFU 11764193_at / Fold change /veh 11764193_at / RFU TMEM53 (11763286_at) / Fold change /veh TMEM53 (11763286_at) / RFU MAGEB2 (11727129_at) / Fold change /veh MAGEB2 (11727129_at) / RFU TMEM200A (11744735_a_at) / Fold change /veh TMEM200A (11744735_a_at) / RFU CCDC152 (11751479_a_at) / Fold change /veh CCDC152 (11751479_a_at) / RFU FAM211A (11726209_a_at) / Fold change /veh FAM211A (11726209_a_at) / RFU RGS16 (11746705_a_at) / Fold change /veh RGS16 (11746705_a_at) / RFU VCAN (11755009_s_at) / Fold change /veh VCAN (11755009_s_at) / RFU RHOB (11743442_s_at) / Fold change /veh RHOB (11743442_s_at) / RFU RGS16 (11720943_a_at) / Fold change /veh RGS16 (11720943_a_at) / RFU RGS16 (11720944_at) / Fold change /veh RGS16 (11720944_at) / RFU, VPS4B / Fold change vs veh, VPS4B / RFU, CREB1 / Fold change vs veh, CREB1 / RFU, DNAJC13 / Fold change vs veh, DNAJC13 / RFU, GNAQ / Fold change vs veh, GNAQ / RFU, CDK5R1 / Fold change vs veh, CDK5R1 / RFU, ZRANB3 / Fold change vs veh, ZRANB3 / RFU, CUL4A / Fold change vs veh, CUL4A / RFU, CCNY / Fold change vs veh, CCNY / RFU, UFL1 / Fold change vs veh, UFL1 / RFU, COG3 / Fold change vs veh, COG3 / RFU, DIAPH2 / Fold change vs veh, DIAPH2 / RFU, SKA2 / Fold change vs veh, SKA2 / RFU, AFF3 / Fold change vs veh, AFF3 / RFU, LMF1 / Fold change vs veh, LMF1 / RFU, IPO11 / Fold change vs veh, IPO11 / RFU, DFFB / Fold change vs veh, DFFB / RFU, FOXP1 / Fold change vs veh, FOXP1 / RFU, CARD8 / Fold change vs veh, CARD8 / RFU, STRN3 / Fold change vs veh, STRN3 / RFU, ADK / Fold change vs veh, ADK / RFU, RASSF2 / Fold change vs veh, RASSF2 / RFU, WIPF1 / Fold change vs veh, WIPF1 / RFU, LARP1B / Fold change vs veh, LARP1B / RFU, RASA1 / Fold change vs veh, RASA1 / RFU, RB1 / Fold change vs veh, RB1 / RFU, PPFIA1 / Fold change vs veh, PPFIA1 / RFU, MAT2A / Fold change vs veh, MAT2A / RFU, CCT5 / Fold change vs veh, CCT5 / RFU, WDR92 / Fold change vs veh, WDR92 / RFU, CUX1 / Fold change vs veh, CUX1 / RFU, TTC7A / Fold change vs veh, TTC7A / RFU, TMEM135 / Fold change vs veh, TMEM135 / RFU, DEPTOR / Fold change vs veh, DEPTOR / RFU, CPM / Fold change vs veh, CPM / RFU, DNAJB6 / Fold change vs veh, DNAJB6 / RFU, CACNA2D3 / Fold change vs veh, CACNA2D3 / RFU, DTX4 / Fold change vs veh, DTX4 / RFU, TFCP2 / Fold change vs veh, TFCP2 / RFU, GMCL1 /// GMCL1P1 / Fold change vs veh, GMCL1 /// GMCL1P1 / RFU, AEBP2 / Fold change vs veh, AEBP2 / RFU, SNHG1 /// SNORD22 /// SNORD25 /// SNORD26 /// SNORD27 /// SNORD28 /// SNORD29 /// SNORD31 / Fold change vs veh, SNHG1 /// SNORD22 /// SNORD25 /// SNORD26 /// SNORD27 /// SNORD28 /// SNORD29 /// SNORD31 / Fold change (Aza/veh), C12orf56 (ProbeSet 11735607_a_at) / Fold change (ACY-1035/veh), C12orf56 (ProbeSet 11735607_a_at) / Fold change (Aza/veh), FGFR1OP (ProbeSet 11751329_s_at) / Fold change (ACY-1035/veh), FGFR1OP (ProbeSet 11751329_s_at) / Fold change (Aza/veh), VPS36 (ProbeSet 11739960_a_at) / Fold change (ACY-1035/veh), VPS36 (ProbeSet 11739960_a_at) / RFU SYPL1 (11715823_x_at) / Fold change /veh SYPL1 (11715823_x_at) / RFU IGFBP7 (11715501_s_at) / Fold change /veh IGFBP7 (11715501_s_at) / RFU REEP3 (11722064_at) / Fold change /veh REEP3 (11722064_at) / RFU IGLL1 (11728026_x_at) / Fold change /veh IGLL1 (11728026_x_at): dose or concentration left out as unconfirmed
Details: ProbeSet 11734782_x_at; LIST D

SMILES: Nc1ncn([C@@H]2O[C@H](CO)[C@@H](O)[C@H]2O)c(=O)n1 [azacitidine]
- RFU, WDR92: 49.30 RFU
